Source: patent US20010053783A1, “PHARMACEUTICAL COMPOUNDS” (priority 1997, published 2001)

Molecular target: human 2A receptor (5-HT2A) (Homo sapiens, UniProt P28223)
Assay: 5-HT2A receptor binding, displacement of [3H] ketanserin (Nelson et al.)
Conditions: human 2A receptor binding, versus 5-fluoroindolyl propyl comparator
Text: As mentioned above, the compounds of the invention are active at the serotonin, 5-HT2A, receptor.

Sequence of human 2A receptor (5-HT2A) (P28223 whole entry): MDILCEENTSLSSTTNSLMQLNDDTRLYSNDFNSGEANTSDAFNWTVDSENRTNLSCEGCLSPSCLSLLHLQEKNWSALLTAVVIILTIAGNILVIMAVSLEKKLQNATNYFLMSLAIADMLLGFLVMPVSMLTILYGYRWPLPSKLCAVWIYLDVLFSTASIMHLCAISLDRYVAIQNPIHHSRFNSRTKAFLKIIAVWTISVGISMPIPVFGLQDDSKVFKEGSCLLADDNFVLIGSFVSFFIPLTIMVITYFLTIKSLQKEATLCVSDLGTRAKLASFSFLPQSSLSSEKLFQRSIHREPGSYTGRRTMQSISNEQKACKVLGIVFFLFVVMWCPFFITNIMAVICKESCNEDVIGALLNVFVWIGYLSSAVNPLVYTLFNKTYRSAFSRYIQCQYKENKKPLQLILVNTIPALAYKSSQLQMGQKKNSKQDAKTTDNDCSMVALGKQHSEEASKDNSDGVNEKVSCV

## O=S1(=O)N(CCN2CC=C(c3c[nH]c4cc(F)ccc34)CC2)c2cccc3c2N1CCC3 [1-{2-[4-(6-Fluoro-[1H]-indol-3-yl)-1,2,3,6-tetrahydro-1-pyridinyl]-1-ethyl}-5,6-dihydro-1H,4H-1,2,5-thiadiazolo[4,3,2-ij]quinoline-2,2-dioxide]
  times more active than the closest structurally related compound of EP-A 0 433 149: approximately twenty-eight
